Reference: patent US7842488B2, “Polynucleotides encoding a human 3-phosphoinositide- dependent protein kinase” (Medical Research Council, priority 1997, dated 2010)
“Also recorded” adds a separate entry of the source.

What was measured:
[1] = test system: GST-PKBα; assay: Activation of GST-PKBα after stimulation of transfected 293 cells; type: cell-based, human; details: versus unstimulated 293 cells
Description: Expression of GST-PKBα in 293 cells. The DNA sequence encoding PKBα was subcloned into the eukaryotic expression vector PEBG2T that has been used to overexpress GST-fusion proteins in eukaryotic cells under an EF1α promoter. A PCR reaction was set up to generate a full length cDNA encoding the PKBα gene with a BamH1site at the 5′ end of the cDNA that is in frame with the GST sequence of the PEBG2T vector and the ATG initiation codon of PKBα, and a KpnI site at the 3′ end, using the human PCMV5-HA-PKBα plasmid. The DNA sequence of the BamH1/KpnI cDNA fragment was checked and then subcloned into the unique BamH1/KpnI restriction sites on the pEBG 2T expression vector. In order to prepare GST-PKBα, 40, 10 cm diameter dishes of human embryonic kidney 293 cells were cultured and each dish transfected with 20 μg of GST PKBα expression construct using the modified calcium phosphate method described previously for overexpression of haemaglutinin tagged PKBα in 293 cells. […]

[2] = test system: HA-PKBα; assay: HA-PKBα activity in transfected 293 cells; type: cell-based, human
Procedure: FIG. 14. PKBα is activated by cotransfection with PDK1 in 293 cells. (A) 293 cells were transiently transfected with DNA constructs expressing either HA-PKBα or both HA-PKBα and Myc-PDK1. The cells were then stimulated for 10 min with or without 50 ng/ml IGF1, the HA-PKBα immunoprecipitated from the lysates and assayed. The results are expressed relative to the specific activity of wild type HA-PKBα in unstimulated 293 cells ([…]). No PKBα activity was detected in mock transfections in which the cells were transfected with PCMV5 vector alone (data not shown). (B) 6 μg of protein from each lysate was electrophoresed on a 10% SDS/polyacrylamide gel and immunoblotted using either a monoclonal HA-antibody to detect HA-PKBα or a monoclonal Myc-antibody to detect Myc-PDK1. The molecular mass markers are glycogen phosphorylase (97 kDa), bovine serum albumin (67 kDa) and ovalbumin (43 kDa).
Transfection of 293 cells with HA-tagged PBKα and Myc-PDK1. Human embryonic kidney 293 cells were cultured on 10 cm diameter dishes and transfected with 2 μg/ml pCMV5 DNA constructs encoding for HA-PKBα or HA-PKBα plus Myc-PDK1 [20]. After 24 h the cells were deprived of serum for a further 16 h and then stimulated for 10 min with either […] IGF1 or Buffer. The cells were lysed in 1.0 ml of ice-cold Buffer A, the lysate centrifuged at 4° C. for 10 min at 13,000×g and HA-PKBα immunoprecipitated from aliquots of the supernatant (10 μg protein) and assayed for PKBα with the peptide RPRAATF (SEQ ID NO: 9) as described previously.

[3] = test system: PDK1; assay: Endogenous PDK1 activity in lysates of IGF1-stimulated 293 cells; type: cell-based, human; details: up to 10 min
Procedure: PDK1 is not activated or phosphorylated by IGF1. 293 cells were serum starved for 16 h, stimulated with IGF1 lysed and the endogenous PDK1 activity present in the cell lysates was determined after chromatography on heparin-Sepharose (see Methods).

[4] = test system: Myc-PDK1; assay: 32P-labelling of 293 cells: phosphorylation of Myc-PDK1; type: cell-based, human; details: 5 min
Procedure: (§1) ^32P-labelling of 293 cells transfected with HA-PKBα or Myc-PDK1. This was carried out essentially as described previously. Briefly, 293 cells were transfected with HA-PKBα, or with HA-PKBα plus Myc-PDK1, washed with phosphate free DMEM, incubated for 4 h with [^32P]-orthophosphate (1 mCi/ml), then stimulated with IGF1 (50 ng/ml) for 5 min. The cells were lysed, and the HA-PKBα immunoprecipitated (using 10 μg of 12CAS antibody per 10 cm dish of cells) or the Myc-PDK1 immunoprecipitated (using 10 μg of 9E10 antibody per 10 cm dish of cells). The immunoprecipitated protein was alkylated with 4-vinylpyridine, subjected to SDS/polyacrylamide gel electrophoresis, digested with trypsin and analysed by chromatography on a C18 column (Alessi et al (1996) EMBO J. 15, 6541-6551).
In order to see if IGF1 stimulation was inducing the phosphorylation of PDK1, 293 cells were transfected with Myc-PDK1 (encoding residues 52 to 556), incubated with ^32P-phosphate, stimulated with buffer or IGF1 for 5 min and ^32P-labelled Myc-PDK1 was immunoprecipitated from the lysates. After digestion with trypsin, the resulting peptides were analysed by C18 chromatography. […] One of the in vivo phosphorylation sites on PDK1 was identified as Ser-241 which lies in the equivalent position to Thr308 of PKB in the kinase domain.

[5] = test system: HA-PKBα; assay: 32P-labelling of transfected 293 cells: phosphorylation sites of HA-PKBα; type: cell-based, human; details: 293 cells cotransfected with PDK1
Procedure: FIG. 15. Overexpression of PDK1 in cells induces phosphorylation of PKBα at Thr308. 293 cells transiently transfected with either wild type HA-PKBα (panels A and C) or HA-PKBα and Myc-PDK1 (panels B and D) were incubated with ^32P-orthophosphate, then treated for 10 min without (panels A and B) or with (panels C and D) 50 ng/ml IGF1. The ^32P-labelled HA-PKBα was immunoprecipitated from the lysates, treated with 4-vinylpyridine, and electrophoresed on 1 10% polyacrylamide gel. The HA-PKBα was excised from the gel, digested with trypsin and chromatographed on a C18 column (see legend to FIG. 13) to resolve the four major phosphopeptides which are phosphorylated at Ser-124, Ser473, Thr308 and Thr450 respectively. The identity of each phosphopeptide was established by phospho-amino acid analysis and solid phase sequencing. Similar results were obtained in two separate experiments for (panels A and C), and in three separate experiments (panels B and D).
as §1

[6] = biological target: T1, GST-PDK1 (Homo sapiens, UniProt O15530); assay: GST-PDK1 assay: activation and phosphorylation of GST-PKBα; type: biochemical; details: for activation and phosphorylation of GST-PKBα by GST-PDK1 (in words): lipid 10 μM in PtdCho/PtdSer vesicles
T1 construct: Residues 52-556 of PDK1 were expressed in human embryonic kidney 293 cells; made in house; host or cells: human embryonic kidney 293 cells (pEBG2T)
T1 sequence (O15530 52-556): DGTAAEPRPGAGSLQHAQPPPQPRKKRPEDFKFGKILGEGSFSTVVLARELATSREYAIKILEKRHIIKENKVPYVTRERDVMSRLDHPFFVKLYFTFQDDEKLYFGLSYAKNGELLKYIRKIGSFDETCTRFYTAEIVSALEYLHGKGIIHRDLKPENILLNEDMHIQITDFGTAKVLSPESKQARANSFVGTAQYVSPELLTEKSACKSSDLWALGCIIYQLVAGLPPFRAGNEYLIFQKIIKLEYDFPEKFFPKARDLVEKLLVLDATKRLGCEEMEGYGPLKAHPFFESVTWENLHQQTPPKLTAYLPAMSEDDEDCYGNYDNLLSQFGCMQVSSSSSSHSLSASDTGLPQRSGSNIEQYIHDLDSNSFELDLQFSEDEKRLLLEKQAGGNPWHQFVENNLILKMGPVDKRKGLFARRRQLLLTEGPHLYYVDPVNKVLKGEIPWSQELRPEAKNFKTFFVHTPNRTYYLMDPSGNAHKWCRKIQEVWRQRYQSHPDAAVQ
Procedure: (§2) FIG. 12. […] In panels A and C, the assays were terminated by making the incubations 1% (by vol) in TRITON X-100™ (see Ref 21), and the increase in specific activity of GST-PKBα was determined. In panels B and D, the reactions were terminated by making the solutions 1% in SDS, the samples were subjected to SDS/polyacrylamide gel electrophoresis, and the phosphorylation was assessed by autoradiography of the Coomassie blue-stained band corresponding to GST-PKBα.
(§3) One unit of PDK1 activity was defined as that amount required to increase the basal activity of GST-PKBα by 1 unit of activity in one min.

[7] = test system: PDK1; assay: PDK1 assay: activation of GST-PKBα by purified PDK1 with phospholipid vesicles; type: biochemical, rabbit; details: lipid 10 μM in vesicles of 100 μM PtdCho, 100 μM PtdSer; 30 min at 30° C.
Summary of the method: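 Two-stage assay: GST-PKBα incubated with PDK1, MgATP and phospholipid vesicles to allow activation. Reactions run 10 min at 30 °C, stopped on p81 phosphocellulose paper and washed in phosphoric acid. Basal GST-PKBα activity measured without PDK1.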

[8] = biological target: T2, GST-DSTPK61 (Drosophila melanogaster, UniProt Q9W0V1); assay: GST-DSTPK61 assay: activation and phosphorylation of GST-PKBα; type: biochemical; details: lipid 10 μM in PtdCho/PtdSer vesicles
T2 construct: residues 1-752 of DSTPK61 in E. coli as fusion proteins; made in house; host or cells: E. coli (pGEX-3X)
Procedure: as §2, §3

[9] = biological target: T3, PDK1 (Homo sapiens, UniProt O15530); assay: Direct binding of PtdIns(3,4,5)P3 to PDK1
T3 sequence (O15530 1-556): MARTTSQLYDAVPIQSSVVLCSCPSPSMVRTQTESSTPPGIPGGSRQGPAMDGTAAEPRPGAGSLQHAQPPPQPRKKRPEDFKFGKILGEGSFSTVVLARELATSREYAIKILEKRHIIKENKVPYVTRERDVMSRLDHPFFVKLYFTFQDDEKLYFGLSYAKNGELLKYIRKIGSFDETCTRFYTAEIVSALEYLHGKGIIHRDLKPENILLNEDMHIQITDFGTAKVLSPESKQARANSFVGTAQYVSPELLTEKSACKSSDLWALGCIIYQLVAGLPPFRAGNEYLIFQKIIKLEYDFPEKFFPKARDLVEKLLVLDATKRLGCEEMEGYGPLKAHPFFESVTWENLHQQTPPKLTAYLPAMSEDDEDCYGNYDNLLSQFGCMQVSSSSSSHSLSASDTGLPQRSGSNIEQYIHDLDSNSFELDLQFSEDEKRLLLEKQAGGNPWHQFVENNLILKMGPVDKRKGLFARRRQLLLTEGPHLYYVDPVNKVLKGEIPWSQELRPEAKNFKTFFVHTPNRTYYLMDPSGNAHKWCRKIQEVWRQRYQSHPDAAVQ

[10] = biological target: PKB (Homo sapiens, UniProt P31749); details: via the N-terminal PH domain; cited from earlier work
[11] = biological target: T4, GST-PKBα (Homo sapiens, UniProt P31749); assay: GST-PKBα activity and phosphorylation with lipids in the absence of PDK1; type: biochemical; details: same conditions as PDK1 activation
T4 construct: generate a full length cDNA encoding the PKBα gene; made in house; host or cells: human embryonic kidney 293 cells (pEBG2T), serum starved
Procedure: Assay of PDK1. The assay was carried out in two stages; in the first, GST-PKBα was incubated with PDK1 in the presence of MgATP and phospholipid vesicles to permit activation of GST-PKBα.
After 10 min at 30° C., the reactions were terminated by spotting the reaction mixture on to p81 phosphocellulose paper. The papers were washed in phosphoric acid and analysed as described previously. […] The basal GST-PKBα activity is the activity measured in the absence of PDK1.

T2 sequence (Q9W0V1 85-836 Q200H/Q201E/Q317A/G443R): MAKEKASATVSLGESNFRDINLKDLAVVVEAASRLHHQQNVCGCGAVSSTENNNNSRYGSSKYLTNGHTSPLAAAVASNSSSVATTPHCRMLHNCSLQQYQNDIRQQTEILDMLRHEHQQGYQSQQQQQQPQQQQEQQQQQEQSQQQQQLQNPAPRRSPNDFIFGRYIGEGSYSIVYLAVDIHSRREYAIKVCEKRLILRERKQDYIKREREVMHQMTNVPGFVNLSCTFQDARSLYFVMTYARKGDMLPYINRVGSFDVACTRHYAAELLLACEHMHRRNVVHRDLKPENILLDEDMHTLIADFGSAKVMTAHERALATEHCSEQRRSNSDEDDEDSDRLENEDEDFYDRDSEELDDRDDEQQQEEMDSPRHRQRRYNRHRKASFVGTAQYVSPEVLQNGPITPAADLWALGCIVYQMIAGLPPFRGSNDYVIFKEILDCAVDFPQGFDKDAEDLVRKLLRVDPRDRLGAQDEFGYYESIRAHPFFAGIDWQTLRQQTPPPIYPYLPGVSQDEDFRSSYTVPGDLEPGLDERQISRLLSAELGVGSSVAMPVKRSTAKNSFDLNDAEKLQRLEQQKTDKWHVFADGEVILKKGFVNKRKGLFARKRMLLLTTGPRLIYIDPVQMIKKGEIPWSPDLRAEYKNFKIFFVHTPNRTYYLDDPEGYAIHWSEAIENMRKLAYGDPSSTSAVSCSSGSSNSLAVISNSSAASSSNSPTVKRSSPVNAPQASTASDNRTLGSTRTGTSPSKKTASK
T4 sequence (P31749 whole entry): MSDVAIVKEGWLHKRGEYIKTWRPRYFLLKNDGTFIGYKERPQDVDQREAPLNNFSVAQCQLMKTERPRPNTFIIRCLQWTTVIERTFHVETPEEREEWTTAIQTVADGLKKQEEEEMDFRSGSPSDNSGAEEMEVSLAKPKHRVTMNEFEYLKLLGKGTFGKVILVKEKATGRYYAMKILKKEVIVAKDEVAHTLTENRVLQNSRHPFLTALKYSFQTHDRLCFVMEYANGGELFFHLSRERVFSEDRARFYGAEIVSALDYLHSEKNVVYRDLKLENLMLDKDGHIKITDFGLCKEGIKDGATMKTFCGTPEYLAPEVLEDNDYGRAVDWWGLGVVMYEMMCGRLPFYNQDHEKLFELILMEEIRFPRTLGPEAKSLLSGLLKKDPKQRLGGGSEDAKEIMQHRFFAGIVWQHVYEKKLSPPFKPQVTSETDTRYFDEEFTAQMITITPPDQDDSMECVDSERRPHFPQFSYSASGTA
Sequence of PKB (P31749 whole entry, species assumed, the tested form may be a part): as the sequence (P31749 whole entry) above

| Substance | fold activation of GST-PKBα after stimulation of 293 cells [1] [fold] | fold increase of HA-PKBα activity after stimulation ([2]; 293 cells transfected with HA-PKBα alone, 10 min) [fold] | fold increase of HA-PKBα activity after stimulation ([2]; 293 cells transfected with both HA-PKBα and Myc-PDK1) [fold] | endogenous PDK1 activity after stimulation of 293 cells [3] | phosphorylation of Myc-PDK1 tryptic peptides after stimulation of 293 cells [4] | further fold increase of Thr308 phosphorylation of HA-PKBα [5] [fold] | activation and phosphorylation of GST-PKBα by GST-PDK1 (in words) [6] | activation of PDK1 (in words) [7] | activation and phosphorylation of GST-PKBα by GST-DSTPK61 (in words) [8] | binding to PDK1 (in words) [9] | fold enhancement of PDK1 activity in the presence of the inositol phospholipid ([6]; versus absence of PtdIns(3,4,5)P3 or PtdIns(3,4)P2) | affinity of binding to PKB (in words) [10] | activation, inhibition or phosphorylation of GST-PKBα in the absence of PDK1 [11] |
| --- | --- | --- | --- | --- | --- | --- | --- | --- | --- | --- | --- | --- | --- |
| IGF1: growth factor IGF1 used to stimulate 293 cells | 45 | 40 | 70 | did not result in any activation or inhibition; also recorded: did not affect | does not alter the phosphorylation; also recorded: did not affect | 4 | – | – | – | – | – | – | – |
| Phosphatidylinositol 3,4,5-tris phosphate [PtdIns(3,4,5)P3] | – | – | – | – | – | – | activated and phosphorylated GST-PKBα | only active in the presence of low micromolar concentrations | activated and phosphorylated GST-PKBα | bind PtdIns(3,4,5)P3 directly | – | – | – |
| Phosphatidylinositol 3,4-bisphosphate [PtdIns(3,4)P2] | – | – | – | – | – | – | activated and phosphorylated GST-PKBα | only active in the presence of low micromolar concentrations | activated and phosphorylated GST-PKBα | – | about 1000 fold | micromolar affinity | no effect |
